Experimental findings from ChEMBL document CHEMBL5360581, “Discovery of a novel dual functional phenylpyrazole-styryl hybrid that induces apoptotic and autophagic cell death in bladder cancer cells” (Eur J Med Chem, 2023) are described below.

SMILES strings stand for the structures. Active and inactive are the calls of the source. The rule behind the calls is not given here. A value given as a limit tells only on which side of the number the result lay.

The test system of data set [1] is A549. Put plainly: Cytotoxicity against human A549 cells assessed inhibition of cell growth incubated for 72 hrs by MTT assay. Conditions: A549, 72 h. The format is functional, cell-based.
The nature of data set [2]: Cytotoxicity against human NHDF cells assessed inhibition of cell growth incubated for 72 hrs by MTT assay. The format is toxicity, cell-based. A general note: Tetrazolium assays rely on reduction of a dye to a coloured formazan, in cell work by metabolically active cells.
For data set [3], the system named is SW-620. The experiment in a line: Cytotoxicity against human SW620 cells assessed inhibition of cell growth incubated for 72 hrs by MTT assay. The format is functional, cell-based. Conditions: SW-620, 72 h.
A short description of data set [4]: Selectivity index, ratio of IC50 for cytotoxicity against human NHDF cells to IC50 for cytotoxicity against human HT-1080 cells.
Data set [5] deals with HT-1080. The experiment in a line: Cytotoxicity against human HT-1080 cells assessed inhibition of cell growth incubated for 72 hrs by MTT assay. The format is functional, cell-based. The settings on record: HT-1080, 72 h.
Data set [6] concerns SW-620. Put plainly: Antiproliferative activity against human SW620 cells assessed as reduction in cell viability at 20 uM measured for 72 hrs by MTT assay. It is filed as functional, cell-based.
Data set [7] relates to EJ-28. Put plainly: Cytotoxicity against human EJ-28 cells assessed inhibition of cell growth incubated for 72 hrs by MTT assay. The format is functional, cell-based. Conditions: EJ-28, 72 h.
Data set [8] concerns MCF7. Put plainly: Cytotoxicity against human MCF7 cells assessed inhibition of cell growth incubated for 72 hrs by MTT assay. The settings on record: MCF7, 72 h. The format is functional, cell-based.
Data set [9] can be described thus: Selectivity index, ratio of IC50 for cytotoxicity against human NHDF cells to IC50 for cytotoxicity against human A549 cells. It is filed as toxicity, cell-based. The settings on record: NHDF cells and A549 cells, read-out: Ratio IC50.
Data set [10] can be described thus: Selectivity index, ratio of IC50 for cytotoxicity against human NHDF cells to IC50 for cytotoxicity against human SW620 cells.
The test system of data set [11] is A549. Put plainly: Antiproliferative activity against human A549 cells assessed as reduction in cell viability at 20 uM measured for 72 hrs by MTT assay. The format is functional, cell-based.
The test system of data set [12] is MCF7. The experiment in a line: Antiproliferative activity against human MCF7 cells assessed as reduction in cell viability at 20 uM measured for 72 hrs by MTT assay. It is filed as functional, cell-based.
Data set [13] is described as follows: Selectivity index, ratio of IC50 for cytotoxicity against human NHDF cells to IC50 for cytotoxicity against human MCF7 cells. The settings on record: NHDF cells and MCF7 cells, read-out: Ratio IC50. It is filed as toxicity, cell-based.
The subject of data set [14] is EJ-28. The experiment in a line: Antiproliferative activity against human EJ-28 cells assessed as reduction in cell viability at 20 uM measured for 72 hrs by MTT assay. The format is functional, cell-based.
Data set [15] relates to HT-1080. The experiment in a line: Antiproliferative activity against human HT-1080 cells assessed as reduction in cell viability at 20 uM measured for 72 hrs by MTT assay. It is filed as functional, cell-based.
Data set [16] is described as follows: Selectivity index, ratio of IC50 for cytotoxicity against human NHDF cells to IC50 for cytotoxicity against human EJ-28 cells.

In general, IC50 refers to the point on the concentration scale where inhibition reaches its midpoint. For `Oc1ccccc1-c1cc(/C=C/c2ccccc2Cl)nn1-c1ccccc1`, the IC50 stood at 22.4 µM in the data set with A549 [1]; 15.7 µM in the data set with SW-620 [3]; 16.9 µM in the data set on HT-1080 [5]; 11.7 µM in the data set on EJ-28 [7]; 15.3 µM in the data set on MCF7 [8]. In addition, the IC50 at 72 h in data set [2] is more than 50 µM. Also, the “Ratio IC50” value in [4], in [10] and in [16] was more than 2.2 each time. For the same molecule, the outcome in the data set on SW-620 [6], with A549 [11], in the data set with MCF7 [12], in the data set with EJ-28 [14] and with HT-1080 [15] was Active. The selectivity ratio in [9] and in [13] was more than 2.2 each time.

For `COc1cc(/C=C/c2cc(-c3cc(Cl)ccc3O)n(-c3ccccc3)n2)cc(OC)c1OC`, the IC50 in the data set with A549 [1] was determined as 9.4 µM; with SW-620 [3], 4.4 µM; in the data set with HT-1080 [5], 8.9 µM; in the data set with EJ-28 [7], 10.1 µM; with MCF7 [8] it was 5.9 µM. The molecule further gave an IC50 at 72 h in data set [2] of 39.6 µM. Besides, the “Ratio IC50” value in data set [4], in data set [10] and in data set [16] was 3.9 throughout. The outcome in the data set with SW-620 [6], with A549 [11], in the data set with MCF7 [12], in the data set on EJ-28 [14] and with HT-1080 [15] was Active. The selectivity ratio in [9] and in data set [13] was 3.9 in each case.
